Where “and” joins values, the source holds several entries; their conditions need not be identical. Equal entries are not always repeated.
Assays:
RIP1 kinase = target: T1, RIP1 kinase (Homo sapiens, UniProt Q13546); experiment: fluorescent polarization based binding assay; details: mean of a minimum of 2 experiments
T1 sequence (Q13546 1-375 limits assumed): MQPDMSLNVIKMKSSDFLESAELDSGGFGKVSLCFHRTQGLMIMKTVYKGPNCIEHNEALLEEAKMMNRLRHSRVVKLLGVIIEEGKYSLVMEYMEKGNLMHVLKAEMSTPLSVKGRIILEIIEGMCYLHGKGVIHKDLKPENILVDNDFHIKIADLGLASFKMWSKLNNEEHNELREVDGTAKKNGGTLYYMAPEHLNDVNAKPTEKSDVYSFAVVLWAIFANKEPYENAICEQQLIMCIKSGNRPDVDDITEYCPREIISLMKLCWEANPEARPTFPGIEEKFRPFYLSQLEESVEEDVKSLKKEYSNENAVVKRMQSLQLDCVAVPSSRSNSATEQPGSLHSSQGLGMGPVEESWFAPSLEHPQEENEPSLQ
Source text: A fluorescent polarization based binding assay was used to assess the activity of the compounds of this invention, the details of which are disclosed in International Patent Appln. No. PCT/IB2014/059004, now, International Patent Appln. Pub.

[1] = system: human monocytic leukemia U937 cells; experiment: necroptosis assay in U937 cells; assay type: cell-based; details: Homo sapiens, U-937, U937 cells; viability by cellular ATP (Cell Titer-Glo); read-out: pIC50, inhibited necrosis in U937 cells (converted)
Experimental: The efficacy of RIP1 inhibitors can be tested […] in vitro using a human monocytic leukemia U937 or mouse L929 fibrosarcoma cells in a necroptosis assay. As determined using the method described in S. He et al., Cell, 137(6):1100-1111 (2009) and International Patent Appln. No. PCT/IB2014/059004, now, International Patent Appln. Pub.
Viability was measured by quantitating cellular levels of ATP using the Cell Titer-Glo kit. All data are means±standard deviation of the mean.

## O=C(C1CCN(c2ccc3nccn3n2)CC1)N1N=CC[C@H]1c1cncc(F)c1 [Example 117, (S)-(5-(5-fluoropyridin-3-yl)-4,5-dihydro-1H-pyrazol-1-yl)(1-(imidazo[1,2-b]pyridazin-6-yl)piperidin-4-yl)methanone]
RIP1 kinase
  IC50: 1 to 31.6 nM
[1]
  IC50: 1 to 100 nM

## O=C(c1ccnc(N2CCC(C(=O)N3N=CC[C@H]3c3ccccc3)CC2)n1)N1CCNCC1 [Example 146, (S)-(5-phenyl-4,5-dihydro-1H-pyrazol-1-yl)(1-(4-(piperazine-1-carbonyl)pyrimidin-2-yl)piperidin-4-yl)methanone]
RIP1 kinase
  IC50: 1 to 31.6 nM
[1]
  IC50: 1 to 100 nM

## CNC(=O)c1csc(N2CCC(C(=O)N3N=CC[C@H]3c3ccccc3)CC2)n1 [Example 54, (S)-N-methyl-2-(4-(5-phenyl-4,5-dihydro-1H-pyrazole-1-carbonyl)piperidin-1-yl)thiazole-4-carboxamide]
RIP1 kinase
  IC50: 1 to 31.6 nM
[1]
  IC50: 1 to 100 nM

## Nc1ncnc(N2CCC(C(=O)N3N=CC[C@H]3c3ccccc3)CC2)c1F [Example 61, (S)-(1-(6-amino-5-fluoropyrimidin-4-yl)piperidin-4-yl)(5-phenyl-4,5-dihydro-1H-pyrazol-1-yl)methanone]
RIP1 kinase
  IC50: 1 to 31.6 nM and 1 to 10 nM
[1]
  IC50: 1 to 100 nM

## O=C1Cc2cnc(N3CCC(C(=O)N4N=CC[C@H]4c4cc(F)cc(F)c4)CC3)nc2N1 [Example 80, (S)-2-(4-(5-(3,5-difluorophenyl)-4,5-dihydro-1H-pyrazole-1-carbonyl)piperidin-1-yl)-5H-pyrrolo[2,3-d]pyrimidin-6(7H)-one]
RIP1 kinase
  IC50: 1 to 31.6 nM and 1 to 10 nM
[1]
  IC50: 1 to 100 nM

## N#Cc1nccc(N2CCC(C(=O)N3N=CC[C@H]3c3ccccc3)CC2)n1 [Example 18, (S)-4-(4-(5-phenyl-4,5-dihydro-1H-pyrazole-1-carbonyl)piperidin-1-yl)pyrimidine-2-carbonitrile]
RIP1 kinase
  IC50: 1 to 31.6 nM and 1 to 10 nM
[1]
  IC50: 1 to 100 nM

## O=C(C1CCN(c2cc(C(F)(F)F)ncn2)CC1)N1N=CC[C@H]1c1ccccc1 [Example 51, (S)-(5-phenyl-4,5-dihydro-1H-pyrazol-1-yl)(1-(6-(trifluoromethyl)pyrimidin-4-yl)piperidin-4-yl)methanone]
RIP1 kinase
  IC50: 1 to 31.6 nM
[1]
  IC50: 1 to 100 nM

## O=C(C1CCN(c2ccn3nccc3n2)CC1)N1N=CC[C@H]1c1cncc(F)c1 [Example 116, (S)-(5-(5-fluoropyridin-3-yl)-4,5-dihydro-1H-pyrazol-1-yl)(1-(pyrazolo[1,5-a]pyrimidin-5-yl)piperidin-4-yl)methanone]
RIP1 kinase
  IC50: 1 to 31.6 nM
[1]
  IC50: 1 to 100 nM

## O=C(C1CCN(c2cncc(-c3ccccc3)n2)CC1)N1N=CC[C@H]1c1ccccc1 [Example 38, (S)-(5-phenyl-4,5-dihydro-1H-pyrazol-1-yl)(1-(6-phenylpyrazin-2-yl)piperidin-4-yl)methanone]
RIP1 kinase
  IC50: 1 to 31.6 nM
[1]
  IC50: 1 to 100 nM

## COc1cc(N2CCC(C(=O)N3N=CC[C@H]3c3ccccc3)CC2)nc(N)n1 [Example 34, (S)-(1-(2-amino-6-methoxypyrimidin-4-yl)piperidin-4-yl)(5-phenyl-4,5-dihydro-1H-pyrazol-1-yl)methanone]
RIP1 kinase
  IC50: 1 to 31.6 nM
[1]
  IC50: 1 to 100 nM

## O=C(C1CCN(c2ccc(C(F)(F)F)nn2)CC1)N1N=CC[C@H]1c1ccccc1 [Example 26, (S)-(5-phenyl-4,5-dihydro-1H-pyrazol-1-yl)(1-(6-(trifluoromethyl)pyridazin-3-yl)piperidin-4-yl)methanone]
RIP1 kinase
  IC50: 1 to 31.6 nM
[1]
  IC50: 1 to 100 nM

## CNc1nccc(N2CCC(C(=O)N3N=CC[C@H]3c3ccccc3)CC2)n1 [Example 15, (S)-(1-(2-(methylamino)pyrimidin-4-yl)piperidin-4-yl)(5-phenyl-4,5-dihydro-1H-pyrazol-1-yl)methanone]
RIP1 kinase
  IC50: 1 to 31.6 nM and 1 to 10 nM
[1]
  IC50: 1 to 100 nM

## N#Cc1cncnc1N1CCC(C(=O)N2N=CC[C@H]2c2ccccc2)CC1 [Example 50, (S)-4-(4-(5-phenyl-4,5-dihydro-1H-pyrazole-1-carbonyl)piperidin-1-yl)pyrimidine-5-carbonitrile]
RIP1 kinase
  IC50: 1 to 31.6 nM and 1 to 10 nM
[1]
  IC50: 1 to 100 nM

## C#Cc1cc(N2CCC(C(=O)N3N=CC[C@H]3c3cccc(C#N)c3)CC2)ncn1 [Example 158, (S)-3-(1-(1-(6-ethynylpyrimidin-4-yl)piperidine-4-carbonyl)-4,5-dihydro-1H-pyrazol-5-yl)benzonitrile]
RIP1 kinase
  IC50: 1 to 31.6 nM
[1]
  IC50: 1 to 100 nM

## NC(=O)c1coc(N2CCC(C(=O)N3N=CC[C@H]3c3cc(F)cc(F)c3)CC2)n1 [Example 134, (S)-2-(4-(5-(3,5-difluorophenyl)-4,5-dihydro-1H-pyrazole-1-carbonyl)piperidin-1-yl)oxazole-4-carboxamide]
RIP1 kinase
  IC50: 1 to 31.6 nM
[1]
  IC50: 1 to 100 nM

## O=C(C1CCN(c2ccn3nccc3n2)CC1)N1N=CC[C@H]1c1ccccc1 [Example 21, (S)-(5-phenyl-4,5-dihydro-1H-pyrazol-1-yl)(1-(pyrazolo[1,5-a]pyrimidin-5-yl)piperidin-4-yl)methanone]
RIP1 kinase
  IC50: 1 to 31.6 nM and 1 to 10 nM
[1]
  IC50: 1 to 100 nM

## NC(=O)c1cnc(N2CCC(C(=O)N3N=CC[C@H]3c3cc(F)cc(F)c3)CC2)nc1 [Example 96, (S)-2-(4-(5-(3,5-difluorophenyl)-4,5-dihydro-1H-pyrazole-1-carbonyl)piperidin-1-yl)pyrimidine-5-carboxamide]
RIP1 kinase
  IC50: 1 to 31.6 nM
[1]
  IC50: 1 to 100 nM

## COc1nccc(N2CCC(C(=O)N3N=CC[C@H]3c3cc(F)cc(F)c3)CC2)n1 [Example 99, (S)-(5-(3,5-difluorophenyl)-4,5-dihydro-1H-pyrazol-1-yl)(1-(2-methoxypyrimidin-4-yl)piperidin-4-yl)methanone]
RIP1 kinase
  IC50: 1 to 31.6 nM and 1 to 10 nM
[1]
  IC50: 1 to 100 nM

## Nc1cncc(N2CCC(C(=O)N3N=CC[C@H]3c3ccccc3)CC2)n1 [Example 41, (S)-(1-(6-aminopyrazin-2-yl)piperidin-4-yl)(5-phenyl-4,5-dihydro-1H-pyrazol-1-yl)methanone]
RIP1 kinase
  IC50: 1 to 31.6 nM
[1]
  IC50: 1 to 100 nM

## COc1cncc(N2CCC(C(=O)N3N=CC[C@H]3c3ccccc3)CC2)n1 [Example 48, (S)-(1-(6-methoxypyrazin-2-yl)piperidin-4-yl)(5-phenyl-4,5-dihydro-1H-pyrazol-1-yl)methanone]
RIP1 kinase
  IC50: 1 to 31.6 nM
[1]
  IC50: 1 to 100 nM

## O=C(C1CCN(c2ncc(F)c(OCCO)n2)CC1)N1N=CC[C@H]1c1ccccc1 [Example 155, (S)-(1-(5-fluoro-4-(2-hydroxyethoxy)pyrimidin-2-yl)piperidin-4-yl)(5-phenyl-4,5-dihydro-1H-pyrazol-1-yl)methanone]
RIP1 kinase
  IC50: 1 to 31.6 nM
[1]
  IC50: 1 to 100 nM

## O=C(C1CCN(c2ccc3nccn3n2)CC1)N1N=CC[C@H]1c1cc(F)cc(F)c1 [Example 87, (S)-(5-(3,5-difluorophenyl)-4,5-dihydro-1H-pyrazol-1-yl)(1-(imidazo[1,2-b]pyridazin-6-yl)piperidin-4-yl)methanone]
RIP1 kinase
  IC50: 1 to 31.6 nM and 1 to 10 nM
[1]
  IC50: 1 to 100 nM

## CSc1nccc(N2CCC(C(=O)N3N=CC[C@H]3c3cc(F)cc(F)c3)CC2)n1 [Example 82, (S)-(5-(3,5-difluorophenyl)-4,5-dihydro-1H-pyrazol-1-yl)(1-(2-(methylthio)pyrimidin-4-yl)piperidin-4-yl)methanone]
RIP1 kinase
  IC50: 1 to 31.6 nM and 1 to 10 nM
[1]
  IC50: 1 to 100 nM

## O=C(O)c1ncnc(N2CCC(C(=O)N3N=CC[C@H]3c3cc(F)cc(F)c3)CC2)c1F [Example 164, (S)-6-(4-(5-(3,5-difluorophenyl)-4,5-dihydro-1H-pyrazole-1-carbonyl)piperidin-1-yl)-5-fluoropyrimidine-4-carboxylic acid]
RIP1 kinase
  IC50: 1 to 31.6 nM
[1]
  IC50: 1 to 100 nM

## NC(=O)c1nc(N2CCC(C(=O)N3N=CC[C@H]3c3cncc(F)c3)CC2)ncc1Cl [Example 124, (S)-5-chloro-2-(4-(5-(5-fluoropyridin-3-yl)-4,5-dihydro-1H-pyrazole-1-carbonyl)piperidin-1-yl)pyrimidine-4-carboxamide]
RIP1 kinase
  IC50: 1 to 31.6 nM
[1]
  IC50: 1 to 100 nM

## O=C(C1CCN(c2ncc(O)cn2)CC1)N1N=CC[C@H]1c1ccccc1 [Example 128, (S)-(1-(5-hydroxypyrimidin-2-yl)piperidin-4-yl)(5-phenyl-4,5-dihydro-1H-pyrazol-1-yl)methanone]
RIP1 kinase
  IC50: 1 to 31.6 nM
[1]
  IC50: 1 to 100 nM

## O=C(C1CCN(c2ncc(F)c(OCCN3CCOCC3)n2)CC1)N1N=CC[C@H]1c1ccccc1 [Example 127, (S)-(1-(5-fluoro-4-(2-morpholinoethoxy)pyrimidin-2-yl)piperidin-4-yl)(5-phenyl-4,5-dihydro-1H-pyrazol-1-yl)methanone]
RIP1 kinase
  IC50: 1 to 31.6 nM and 1 to 10 nM
[1]
  IC50: 1 to 100 nM

## C#Cc1cc(N2CCC(C(=O)N3N=CC[C@H]3c3cc(F)cc(F)c3)CC2)ncn1 [Example 157, (S)-(5-(3,5-difluorophenyl)-4,5-dihydro-1H-pyrazol-1-yl)(1-(6-ethynylpyrimidin-4-yl)piperidin-4-yl)methanone]
RIP1 kinase
  IC50: 1 to 31.6 nM and 1 to 10 nM
[1]
  IC50: 1 to 100 nM

## N#Cc1cccc([C@@H]2CC=NN2C(=O)C2CCN(c3ccnc(C#N)n3)CC2)c1 [Example 74, (S)-4-(4-(5-(3-cyanophenyl)-4,5-dihydro-1H-pyrazole-1-carbonyl)piperidin-1-yl)pyrimidine-2-carbonitrile]
RIP1 kinase
  IC50: 1 to 31.6 nM
[1]
  IC50: 1 to 100 nM

Reference: patent publication US20190345138A1, “HETEROCYCLIC AMIDES AS KINASE INHIBITORS” (GlaxoSmithKline Intellectual Property Development Limited, priority 2016, published 2019)
